The test is described as follows: preservative action in foods (e.g. fruit drinks).

Regarding `C/C=C/C=C/C(=O)OC(=O)/C=C/C=C/C` [all-E-sorbic anhydride], the “preservation action relative to sorbic acid or sorbate” value (compared with sorbic acid or sorbate, preservative for foods) is “approximately five times higher”.
On to `C/C=C/C=C/C(=O)OC(=O)/C=C/C=C/C` [sorbic anhydride], for which the “preservative action relative to potassium sorbate” value (compared with e.g. potassium sorbate, preservation of foods) is listed as “about 5 times”.

Values taken from patent publication US9102613B2, “Method for producing sorbic anhydride and also use thereof as a preservative in foods” (LANXESS DEUTSCHLAND GMBH, priority 2010, dated 2015).
